# Like-named read-outs stand apart in the source and are kept apart here. No end group written: not given here.
# How the values were obtained:
# [1] = molecular target: T1, purified porcine DPP-4 (Sus scrofa, UniProt P22411); test: In vitro DPP-4 stability (RP-HPLC and MALDI-ToF degradation profiles); assay type: in vitro ADME; details: for DPP-4 stability: pH 7.4
# T1 construct: purchased Sigma-Aldrich
# Protocol: To establish in vitro stability of PP and [P^3]PP, peptides (10 μg) were incubated with purified porcine DPP-4 (5 mU in 50 mmol/l triethanolamine/HCl, pH 7.4; Sigma-Aldrich) for 0-8 hours and degradation profiles examined using RP-HPLC and MALDI-ToF, employing the same systems as outlined above. Sequence of native PP and [P3]PP using one letter amino acid notation. The amino acid substitution in [P3]PP is denoted by bold underlined text. In vitro DPP-4 stability was assessed following incubation of test peptides with purified DPP-4 (5 mU) for 0-8 h.
# [2] = tested on: BRIN-BD11 cells; test: Beta-cell proliferation (Ki-67 staining), with and without Y4 antagonist (S)-VU0637120; assay type: cell-based, rodent; details: 10^-8 and 10^-6 M, 18 h
# Protocol: FIG. 1 illustrates the effects PP peptides on cell viability, insulin release, proliferation and apoptosis from rodent BRIN-BD11 cells. (A) Cells were incubated with test peptides (10^−8-10^−6 M) for 18 h prior to addition of MTT. (B, C) Cells were incubated (20 min) with (B) 16.7 mM glucose or (C) 16.7 mM glucose supplemented with alanine (10 mM), alone and together with test peptides (10^−12-10^−6 M) and insulin secretion assessed by RIA. (D, E) To assess effects on BRIN BD11 beta-cell proliferation and apoptosis and receptor selectivity, cells were incubated with test peptides (10^−8-10^−6 M) alone, or together with cytokine mix (IL-1β 100 Uml, IFN-γ 20 U/ml, TNF-α 200 U/ml), in the absence and presence of the Y4 antagonist, (S)-VU0637120, (10^−5 M), as specified, for 18 h prior to staining for (D) Ki-67 or (E) TUNEL. Values are mean±SEM (n=8). *p<0.05, **p<0.01 and ***p<0.001 compared with appropriate control culture, namely (A, D, E) media alone or (B, C) 16.7 mM glucose. ^Δp<0.05, ^ΔΔp<0.01, ^ΔΔΔp<0.001 compared to (C) 10 mM alanine or (E) cytokine mix. ^φp<0.05, ^φφp<0.01, ^φφφp<0.001 compared to effects in the absence of the NPYR4 antagonist (S)-VU0637120. […] Proliferation/TUNEL positive frequency was determined using the cell-counter function on ImageJ Software and expressed as % of total cells analysed, as described previously from our laboratory. […]
# T1 sequence (P22411 whole entry): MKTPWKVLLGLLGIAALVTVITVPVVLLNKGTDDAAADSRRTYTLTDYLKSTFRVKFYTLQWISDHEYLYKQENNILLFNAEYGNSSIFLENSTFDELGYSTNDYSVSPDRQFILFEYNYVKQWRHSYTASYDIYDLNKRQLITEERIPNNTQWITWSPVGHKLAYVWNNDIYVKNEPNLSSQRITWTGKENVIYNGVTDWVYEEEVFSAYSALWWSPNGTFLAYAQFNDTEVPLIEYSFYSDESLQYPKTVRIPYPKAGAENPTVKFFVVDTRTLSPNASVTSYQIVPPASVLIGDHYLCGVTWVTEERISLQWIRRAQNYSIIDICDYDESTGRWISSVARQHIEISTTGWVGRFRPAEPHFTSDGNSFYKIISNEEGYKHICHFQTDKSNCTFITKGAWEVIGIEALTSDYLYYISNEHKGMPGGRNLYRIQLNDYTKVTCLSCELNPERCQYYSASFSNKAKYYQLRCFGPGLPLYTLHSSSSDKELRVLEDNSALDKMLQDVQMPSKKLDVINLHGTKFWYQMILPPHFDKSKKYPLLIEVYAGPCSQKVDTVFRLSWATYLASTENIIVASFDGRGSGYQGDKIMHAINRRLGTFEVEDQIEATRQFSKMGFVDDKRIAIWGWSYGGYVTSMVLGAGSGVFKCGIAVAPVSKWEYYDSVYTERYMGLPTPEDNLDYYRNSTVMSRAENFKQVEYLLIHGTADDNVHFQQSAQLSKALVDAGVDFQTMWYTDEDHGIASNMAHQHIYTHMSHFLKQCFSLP
compound,measurement,setting,value
CC[C@H](C)[C@H](NC(=O)[C@H](Cc1ccc(O)cc1)NC(=O)[C@H](CCCNC(=N)N)NC(=O)[C@H](CCCNC(=N)N)NC(=O)[C@H](CC(C)C)NC(=O)[C@H](CC(=O)O)NC(=O)[C@H](C)NC(=O)[C@H](C)NC(=O)[C@H](Cc1ccc(O)cc1)NC(=O)[C@H](CCC(N)=O)NC(=O)[C@H](C)NC(=O)[C@H](CCSC)NC(=O)[C@H](CCC(N)=O)NC(=O)[C@H](CCC(=O)O)NC(=O)[C@@H]1CCCN1C(=O)[C@@H](NC(=O)[C@H](C)NC(=O)[C@H](CC(N)=O)NC(=O)[C@H](CC(=O)O)NC(=O)CNC(=O)[C@@H]1CCCN1C(=O)[C@H](Cc1ccc(O)cc1)NC(=O)[C@@H](NC(=O)[C@@H]1CCCN1C(=O)[C@H](CCC(=O)O)NC(=O)[C@H](CC(C)C)NC(=O)[C@@H]1CCCN1C(=O)[C@H](C)N)C(C)C)[C@@H](C)O)C(=O)N[C@@H](CC(N)=O)C(=O)N[C@@H](CCSC)C(=O)N[C@@H](CC(C)C)C(=O)N[C@H](C(=O)N[C@@H](CCCNC(=N)N)C(=O)N1CCC[C@H]1C(=O)N[C@@H](CCCNC(=N)N)C(=O)N[C@@H](Cc1ccc(O)cc1)C(N)=O)[C@@H](C)O [Native PP],DPP-4 mediated degradation,[1],"generation of the N-terminally cleaved product, PP(3-36)"
same,DPP-4 stability,[1],<2 h
APPEPVYPGDNAKPEQMAQYAADLRRYINMKTRPRY-NH2 (C-terminus assumed) [[P^3]PP],DPP-4 mediated degradation,"[1]; incubation with DPP-4, 0-8 h",completely resistant
same,DPP-4 stability,"[1]; purified DPP-4 (5 mU), incubation 0-8 h",>8 h
GLP-1: GLP-1 (10^-8 and 10^-6 M) employed as control in proliferation studies,BRIN-BD11 cell proliferation (Ki-67),[2],augmented

# Source: patent US20260097101A1, “Compositions for Use in the Treatment of Diabetes or Obesity” (Dia Beta Labs Ltd, priority 2022, published 2026)
